Laboratory results taken from patent US12552766B2, “Pesticidally active azole amide compounds” (SYNGENTA CROP PROTECTION AG, priority 2019, dated 2026).

Columns and labels:
Format in all cases: in vivo
[1] = tested on: Spodoptera littoralis (Egyptian Cotton Leaf Worm); experiment: Example B9: Spodoptera littoralis, spray on cotton leaf discs; conditions: foliar, 72 h, application rate of 200 ppm, L1 larvae, 3 days after infestation, read-out: control in at least one of the three categories (mortality, anti-feedant effect, or growth inhibition)
Protocol: Cotton leaf discs were placed onto agar in 24-well microtiter plates and sprayed with aqueous test solutions prepared from 10′000 ppm DMSO stock solutions. After drying the leaf discs were infested with five L1 larvae. The samples were assessed for mortality, anti-feeding effect, and growth inhibition in comparison to untreated samples 3 days after infestation. Control of Spodoptera littoralis by a test sample is given when at least one of the categories mortality, anti-feedant effect, and growth inhibition is higher than the untreated sample.

[2] = tested on: Plutella xylostella (Diamond Back Moth); experiment: Example B5: Plutella xylostella, artificial diet, 24-well; conditions: 192 h, application rate of 200 ppm, eggs, 8 days after infestation, read-out: control in at least one of the two categories (mortality or growth inhibition)
Protocol: 24-well microtiter plates with artificial diet were treated with aqueous test solutions prepared from 10′000 ppm DMSO stock solutions by pipetting. After drying, Plutella eggs were pipetted through a plastic stencil onto a gel blotting paper and the plate was closed with it. The samples were assessed for mortality and growth inhibition in comparison to untreated samples 8 days after infestation.

[3] = tested on: Diabrotica Balteata (Corn Root Worm); experiment: Example B1: Diabrotica balteata, spray on maize sprouts; conditions: 96 h, application rate of 200 ppm, L2 larvae, 4 days after infestation, read-out: control in at least one of the two categories (mortality or growth inhibition)
Protocol: Maize sprouts placed onto an agar layer in 24-well microtiter plates were treated with aqueous test solutions prepared from 10′000 ppm DMSO stock solutions by spraying. After drying, the plates were infested with L2 larvae (6 to 10 per well). The samples were assessed for mortality and growth inhibition in comparison to untreated samples 4 days after infestation.

[4] = tested on: Chilo suppressalis (Striped Rice Stemborer); experiment: Example B4: Chilo suppressalis, artificial diet; conditions: 144 h, application rate of 200 ppm, L2 larvae, 6 days after infestation, read-out: control in at least one of the three categories (mortality, anti-feedant effect, or growth inhibition)
Protocol: 24-well microtiter plates with artificial diet were treated with aqueous test solutions prepared from 10′000 ppm DMSO stock solutions by pipetting. After drying, the plates were infested with L2 larvae (6-8 per well). The samples were assessed for mortality, anti-feeding effect, and growth inhibition in comparison to untreated samples 6 days after infestation. Control of Chilo suppressalis by a test sample is given when at least one of the categories mortality, anti-feedant effect, and growth inhibition is higher than the untreated sample.

CC(NC(=O)c1cc(C(F)(F)F)cc(C(F)(F)F)c1)c1nc(Br)nn1-c1ncc(OC(F)F)cn1 (stereo not shown) [Compound P2, N-[1-[5-bromo-2-[5-(difluoromethoxy)pyrimidin-2-yl]-1,2,4-triazol-3-yl]ethyl]-3,5-bis(trifluoromethyl) benzamide]
≥ 80%: percent control (mortality, anti-feedant effect or growth inhibition) at 200 ppm [1] | percent control (mortality or growth inhibition) at 200 ppm [2] | percent control (mortality or growth inhibition) at 200 ppm [3] | percent control (mortality, anti-feedant effect or growth inhibition) at 200 ppm [4]

CC(NC(=O)c1cc(SC(F)(F)F)cc(C(F)(F)F)c1)c1nc(Br)nn1-c1ccc(C#N)cn1 (stereo not shown) [Compound P5, N-[1-[5-bromo-2-(5-cyano-2-pyridyl)-1,2,4-triazol-3-yl]ethyl]-3-(trifluoromethyl)-5-(trifluoromethylsulfanyl)benzamide]
≥ 80%: percent control (mortality, anti-feedant effect or growth inhibition) at 200 ppm [1] | percent control (mortality or growth inhibition) at 200 ppm [2] | percent control (mortality or growth inhibition) at 200 ppm [3] | percent control (mortality, anti-feedant effect or growth inhibition) at 200 ppm [4]

CC(NC(=O)c1cc(C(F)(F)F)cc(C(F)(F)F)c1)c1nc(Br)nn1-c1ccc(OC(F)F)cn1 (stereo not shown) [Compound P6, N-[1-[5-bromo-2-[5-(difluoromethoxy)-2-pyridyl]-1,2,4-triazol-3-yl]ethyl]-3,5-bis(trifluoromethyl) benzamide]
≥ 80%: percent control (mortality, anti-feedant effect or growth inhibition) at 200 ppm [1] | percent control (mortality or growth inhibition) at 200 ppm [2] | percent control (mortality or growth inhibition) at 200 ppm [3] | percent control (mortality, anti-feedant effect or growth inhibition) at 200 ppm [4]

CC(NC(=O)c1cc(OC(F)F)cc(C(F)(F)F)c1)c1nc(Br)nn1-c1ccc(OC(F)F)cn1 (stereo not shown) [Compound P7, N-[1-[5-bromo-2-[5-(difluoromethoxy)-2-pyridyl]-1,2,4-triazol-3-yl]ethyl]-3-(difluoromethoxy)-5-(trifluoromethyl) benzamide]
≥ 80%: percent control (mortality, anti-feedant effect or growth inhibition) at 200 ppm [1] | percent control (mortality or growth inhibition) at 200 ppm [2] | percent control (mortality or growth inhibition) at 200 ppm [3] | percent control (mortality, anti-feedant effect or growth inhibition) at 200 ppm [4]

CC(NC(=O)c1cc(OC(F)(F)F)cc(C(F)(F)F)c1)c1nc(Br)nn1-c1ccc(C#N)cn1 (stereo not shown) [Compound P9, N-[1-[5-bromo-2-(5-cyano-2-pyridyl)-1,2,4-triazol-3-yl]ethyl]-3-(trifluoromethoxy)-5-(trifluoromethyl)benzamide]
≥ 80%: percent control (mortality, anti-feedant effect or growth inhibition) at 200 ppm [1] | percent control (mortality or growth inhibition) at 200 ppm [2] | percent control (mortality or growth inhibition) at 200 ppm [3] | percent control (mortality, anti-feedant effect or growth inhibition) at 200 ppm [4]

CC(NC(=O)c1cc(OC(F)F)cc(C(F)(F)F)c1)c1nc(Br)nn1-c1ccc(C#N)cn1 (stereo not shown) [Compound P10, N-[1-[5-bromo-2-(5-cyano-2-pyridyl)-1,2,4-triazol-3-yl]ethyl]-3-(difluoromethoxy)-5-(trifluoromethyl)benzamide]
≥ 80%: percent control (mortality, anti-feedant effect or growth inhibition) at 200 ppm [1] | percent control (mortality or growth inhibition) at 200 ppm [2] | percent control (mortality or growth inhibition) at 200 ppm [3] | percent control (mortality, anti-feedant effect or growth inhibition) at 200 ppm [4]

CC(NC(=O)c1cc(C(F)(F)F)cc(C(F)(F)F)c1)c1nc(Br)nn1-c1ccc(C#N)cn1 (stereo not shown) [Compound P11, N-[1-[5-bromo-2-(5-cyano-2-pyridyl)-1,2,4-triazol-3-yl]ethyl]-3,5-bis(trifluoromethyl)benzamide]
≥ 80%: percent control (mortality, anti-feedant effect or growth inhibition) at 200 ppm [1] | percent control (mortality or growth inhibition) at 200 ppm [2] | percent control (mortality or growth inhibition) at 200 ppm [3] | percent control (mortality, anti-feedant effect or growth inhibition) at 200 ppm [4]

CC(NC(=O)c1cc(OCC(F)(F)F)cc(C(F)(F)F)c1)c1nc(Br)nn1-c1ccc(OC(F)F)cn1 (stereo not shown) [Compound P14, N-[1-[5-bromo-2-[5-(difluoromethoxy)-2-pyridyl]-1,2,4-triazol-3-yl]ethyl]-3-(2,2,2-trifluoroethoxy)-5-(trifluoromethyl) benzamide]
≥ 80%: percent control (mortality, anti-feedant effect or growth inhibition) at 200 ppm [1] | percent control (mortality or growth inhibition) at 200 ppm [2] | percent control (mortality or growth inhibition) at 200 ppm [3] | percent control (mortality, anti-feedant effect or growth inhibition) at 200 ppm [4]

CC(NC(=O)c1cc(OC(F)(F)F)cc(C(F)(F)F)c1)c1nc(Br)nn1-c1ncc(OCC(F)F)cn1 (stereo not shown) [Compound P22, N-[1-[5-bromo-2-[5-(2,2-difluoroethoxy)pyrimidin-2-yl]-1,2,4-triazol-3-yl]ethyl]-3-(trifluoromethoxy)-5-(trifluoromethyl) benzamide]
≥ 80%: percent control (mortality, anti-feedant effect or growth inhibition) at 200 ppm [1] | percent control (mortality or growth inhibition) at 200 ppm [2] | percent control (mortality or growth inhibition) at 200 ppm [3] | percent control (mortality, anti-feedant effect or growth inhibition) at 200 ppm [4]

CC(NC(=O)c1cc(SC(F)(F)F)cc(C(F)(F)F)c1)c1nc(Br)nn1-c1ncc(OCC(F)F)cn1 (stereo not shown) [Compound P24, N-[1-[5-bromo-2-[5-(2,2-difluoroethoxy)pyrimidin-2-yl]-1,2,4-triazol-3-yl]ethyl]-3-(trifluoromethyl)-5-(trifluoromethyl-sulfanyl)benzamide]
≥ 80%: percent control (mortality, anti-feedant effect or growth inhibition) at 200 ppm [1] | percent control (mortality or growth inhibition) at 200 ppm [2] | percent control (mortality or growth inhibition) at 200 ppm [3] | percent control (mortality, anti-feedant effect or growth inhibition) at 200 ppm [4]

CC(NC(=O)c1cc(C(F)(F)F)cc(C(F)(F)F)c1)c1nc(Br)nn1-c1ncc(OCC(F)F)cn1 (stereo not shown) [Compound P25, N-[1-[5-bromo-2-[5-(2,2-difluoroethoxy)pyrimidin-2-yl]-1,2,4-triazol-3-yl]ethyl]-3,5-bis(trifluoromethyl) benzamide]
≥ 80%: percent control (mortality, anti-feedant effect or growth inhibition) at 200 ppm [1] | percent control (mortality or growth inhibition) at 200 ppm [2] | percent control (mortality or growth inhibition) at 200 ppm [3] | percent control (mortality, anti-feedant effect or growth inhibition) at 200 ppm [4]

CC(NC(=O)c1cc(C(F)(F)F)cc(C(F)(F)F)c1)c1nc(-c2ncccn2)nn1-c1ccc(C#N)cn1 (stereo not shown) [Compound P32, N-[1-[2-(5-cyano-2-pyridyl)-5-pyrimidin-2-yl-1,2,4-triazol-3-yl]ethyl]-3,5-bis(trifluoromethyl) benzamide]
≥ 80%: percent control (mortality, anti-feedant effect or growth inhibition) at 200 ppm [1] | percent control (mortality or growth inhibition) at 200 ppm [2] | percent control (mortality or growth inhibition) at 200 ppm [3] | percent control (mortality, anti-feedant effect or growth inhibition) at 200 ppm [4]

CC(NC(=O)c1cc(OCC(F)F)cc(C(F)(F)F)c1)c1nc(Br)nn1-c1ccc(C#N)cn1 (stereo not shown) [Compound P33, N-[1-[5-bromo-2-(5-cyano-2-pyridyl)-1,2,4-triazol-3-yl]ethyl]-3-(2,2-difluoroethoxy)-5-(trifluoromethyl)benzamide]
≥ 80%: percent control (mortality, anti-feedant effect or growth inhibition) at 200 ppm [1] | percent control (mortality or growth inhibition) at 200 ppm [2] | percent control (mortality, anti-feedant effect or growth inhibition) at 200 ppm [4]

CC(NC(=O)c1cc(Cl)cc(C(F)(F)F)c1)c1nc(Br)nn1-c1ccc(OCC(F)(F)F)cn1 (stereo not shown) [Compound P37, N-[1-[5-bromo-2-[5-(2,2,2-trifluoroethoxy)-2-pyridyl]-1,2,4-triazol-3-yl]ethyl]-3-chloro-5-(trifluoromethyl) benzamide]
≥ 80%: percent control (mortality, anti-feedant effect or growth inhibition) at 200 ppm [1] | percent control (mortality or growth inhibition) at 200 ppm [2] | percent control (mortality, anti-feedant effect or growth inhibition) at 200 ppm [4]

CC(NC(=O)c1cc(OCC(F)(F)F)cc(C(F)(F)F)c1)c1nc(Br)nn1-c1ccc(OCC(F)(F)F)cn1 (stereo not shown) [Compound P39, N-[1-[5-bromo-2-[5-(2,2,2-trifluoroethoxy)-2-pyridyl]-1,2,4-triazol-3-yl]ethyl]-3-(2,2,2-trifluoroethoxy)-5-(trifluoromethyl) benzamide]
≥ 80%: percent control (mortality, anti-feedant effect or growth inhibition) at 200 ppm [1] | percent control (mortality or growth inhibition) at 200 ppm [2]

CC(NC(=O)c1cc(C(F)(F)F)cc(C(F)(F)F)c1)c1nc(C#N)nn1-c1ccc(C#N)cn1 (stereo not shown) [Compound P48, N-[1-[5-cyano-2-(5-cyano-2-pyridyl)-1,2,4-triazol-3-yl]ethyl]-3,5-bis(trifluoromethyl) benzamide]
≥ 80%: percent control (mortality, anti-feedant effect or growth inhibition) at 200 ppm [1] | percent control (mortality or growth inhibition) at 200 ppm [3] | percent control (mortality, anti-feedant effect or growth inhibition) at 200 ppm [4]

CC(NC(=O)c1cc(Br)cc(C(F)(F)F)c1)c1nc(Br)nn1-c1ccc(OCC(F)(F)F)cn1 (stereo not shown) [Compound P50, 3-bromo-N-[1-[5-bromo-2-[5-(2,2,2-trifluoroethoxy)-2-pyridyl]-1,2,4-triazol-3-yl]ethyl]-5-(trifluoromethyl) benzamide]
≥ 80%: percent control (mortality or growth inhibition) at 200 ppm [2] | percent control (mortality, anti-feedant effect or growth inhibition) at 200 ppm [4]
